# Measurements as given in US20030096264A1, “Multi-parameter high throughput screening assays (MPHTS)” (Psychiatric Genomics, Inc., priority 2001, published 2003).
# Columns and labels:
# NBFL cell line = experiment: RT-PCR validation of differential expression in NBFL cells treated with valproate; format: cell-based, human; settings: valproate treated vs untreated, normalized to GAPDH
# Method: To validate differential expression measurements that were obtained using microarrays, expression levels were also measured using a reverse transcription polymerase chain reaction (RT-PCR) assay for five genes having the highest expression ratio in Table 3: nidogen (SEQ ID NO:25; σ=1.7), silver (SEQ ID NO:26; σ=1.6), dopamine β-hydroxylase (SEQ ID NO:53; σ=-1.7), dopa decarboxylase (SEQ ID NO:54; σ=−2) and chromogranin B (SEQ ID NO:55; σ=−2.1). These RT-PCR experiments were performed according to routine methods that are known in 10 the art. Briefly, RNA from the NBFL cell line treated with or without valproate was primed with oligo-dT and reverse transcribed. The resultant cDNA was subjected to either 25 or 30 rounds of PCR amplification, depending on the absolute expression level of the gene tested. The amount of PCR product generated from each sample was normalized to the amount of GAPDH amplified from each sample and a fold-change relative to valproate treatment was calculated. β-actin was used as an additional control.
# The results from these experiments are shown graphically in FIG. 3. As expected, no change in β-actin (B-ACT) expression was detected (+/− one-fold) when cells were treated with valproate. However, a greater than 2-fold change in expression levels was measured for each of the five other genes tested: nidogoen (NID), silver (SIL), dopamine β-hydroxylase (DBH), dopa decarboxylase (DDC) and chromogranin B (CG-B).
# rat hippocampus = experiment: In vivo expression profile in hippocampus of rats treated with valproate; settings: three weeks
# Method: Specifically, in these experiments rats were treated with valproate, and gene expression levels in the hippocampus of each rat were measured for a plurality of different genes.
# In more detail, twenty rats were divided into two groups, containing ten individuals each. One group of ten rats was used as the control group, whereas the other group functioned as the experimental group. Each rat in the experimental group was injected twice daily with 250 mg valproate for each kilogram of the rat's body mass. Each rat in the control group was similarly injected, but with a vehicle that contained no active ingredient. After three weeks dosing, the rats were sacrificed and their brains removed. Each rat's brain was divided in half. The hippocampus was then removed from each half and flash frozen. The half hippocampus tissue from the rats in each group was combined and total RNA was extracted from the tissue using TriReagent (Invitrogen Corp., Carlsbad Calif.) following the manufacturer's instructions. mRNA was purified with Oligotext (Qiagen Inc., Valencia Calif.) following the manufacturer's recommended protocol. mRNA quality and concentration was determined using the Agilent Bioanalyzer.
# For expression profile analysis, mRNA from the pooled tissues of the control group was measured with Cy3 dye, and mRNA from the pooled tissues of the experimental group was measured with Cy5 dye. The labeled probes were then mixed and hybridized to a Rat Tox3 microarray (Incyte Genomics, Palo Alto Calif.). The relative signal intensity from each fluorescent dye was measured for each element (i.e., for each “gene”) on the microarray, normalized for differences, and the relative difference in expression level determined.
# The relative differences in expression levels for various genes are plotted in FIG. 4. Specifically, each point on the plot represents a gene whose expression level was measured in both the experimental and control groups. Each point's position along the horizontal axis indicates the relative Cy3 signal intensity measured for that gene and reflects, therefore, the gene's expression in rats that were not treated with valproate. A point's position along the vertical axis indicates the relative Cy5 signal intensity measured for the corresponding gene, reflecting the gene's expression in the hippocampus of rats that were treated with valproate. […] By contrast, changes by at least a factor of 1.5 (i.e., θ≧1.5) indicate significant changes in expression in response to the valproate treatment (identified using a Rat Toxicology array from Incyte, Palo Alto, Calif.). These genes are listed in Table 5, below, along with GenBank Accession number for those genes. Again, a cDNA sequence for each gene listed in Table 5 is also provided in the accompanying Sequence Listing, and its sequence identifier is specified in Table 5 along with the GenBank Accession number.
smiles,measurement,setting,value
CCCC(CCC)C(=O)O [valproate],change in expression level by RT-PCR: chromogranin B (CG-B),NBFL cell line,greater than 2 fold
same,change in expression level by RT-PCR: dopa decarboxylase (DDC),NBFL cell line,greater than 2 fold
same,change in expression level by RT-PCR: dopamine β-hydroxylase (DBH),NBFL cell line,greater than 2 fold
same,change in expression level by RT-PCR: nidogoen (NID),NBFL cell line,greater than 2 fold
same,change in expression level by RT-PCR: silver (SIL),NBFL cell line,greater than 2 fold
same,Φ: pol polyprotein,"rat hippocampus; 250 mg/kg twice daily, AAC31805 SEQ ID NO: 85",1.9
same,Φ: CGI-83 protein,"rat hippocampus; 250 mg/kg twice daily, AAD34078 SEQ ID NO: 89",1.9
same,Φ: CGI-86 protein,"rat hippocampus; 250 mg/kg twice daily, AAD34081 SEQ ID NO: 88",1.9
same,"Φ: Rat RT1-DOb gene, partial cds.","rat hippocampus; 250 mg/kg twice daily, AB008110 SEQ ID NO: 63",2.4
same,Φ: Mouse BAC-146N21 Chromosome X contains iduronate-2-sulfatase gene; complete sequence.,"rat hippocampus; 250 mg/kg twice daily, AC002315 SEQ ID NO: 96",1.8
same,"Φ: Mouse chromosome unknown clone rp21-657p21 strain 129S6/SvEvTac, complete sequence.","rat hippocampus; 250 mg/kg twice daily, AC005743 SEQ ID NO: 62",2.5
same,"Φ: Mouse chromosome 18 clone mgsriii-pl-3084 strain RIII Fibroblast cell line C 127, complete sequence.","rat hippocampus; 250 mg/kg twice daily, AC007665 SEQ ID NO: 75",2.1
same,"Φ: Mouse chromosome 10, clone RP21-247L16, complete sequence.","rat hippocampus; 250 mg/kg twice daily, AC012302 SEQ ID NO: 87",1.9
same,"Φ: Mouse chromosome 18 clone RP23-16108, complete sequence.","rat hippocampus; 250 mg/kg twice daily, AC020967 SEQ ID NO: 57",3.1
same,Φ: Mouse TCR beta locus from bases 250554 to 501917 (section 2 of 3) of the complete sequence.,"rat hippocampus; 250 mg/kg twice daily, AE000664 SEQ ID NO: 58",2.8
same,Φ: Mouse TCR beta locus from bases 250554 to 501917 (section 2 of 3) of the complete sequence.,"rat hippocampus; 250 mg/kg twice daily, AE000664 SEQ ID NO: 61",2.5
same,Φ: Mouse TCR beta locus from bases 250554 to 501917 (section 2 of 3) of the complete sequence.,"rat hippocampus; 250 mg/kg twice daily, AE000664 SEQ ID NO: 79",2
same,"Φ: Rat strain Long Evans shaker myelin basic protein (Mbp) gene, intron 3, interrupted by ETn retrotransposon.","rat hippocampus; 250 mg/kg twice daily, AF076337 SEQ ID NO: 65",2.3
same,"Φ: Mouse LDL receptor member LR3 mRNA, complete cds.","rat hippocampus; 250 mg/kg twice daily, AF077847 SEQ ID NO: 70",2.2
same,"Φ: Mouse MHC class III region RD gene, partial eds; Bf, C2, G9A, NG22, G9, HSP70, HSP70, HSC70t, and smRNP genes, complete cds; G7A gene, partial cds; and unknown genes.","rat hippocampus; 250 mg/kg twice daily, AF109906 SEQ ID NO: 86",1.9
same,"Φ: Mouse chromosome X clone BAC B22804, complete sequence.","rat hippocampus; 250 mg/kg twice daily, AF121351 SEQ ID NO: 71",2.2
same,"Φ: Mouse (Mus musculus domesticus) X chromosome region similar to Human DXS963E, complete sequence.","rat hippocampus; 250 mg/kg twice daily, AF130357 SEQ ID NO: 97",1.8
same,"Φ: Rat cytosolic branch chain aminotransferase BCATc mRNA, partial cds.","rat hippocampus; 250 mg/kg twice daily, AF 165887 SEQ ID NO: 111",−1.5
same,"Φ: Rat calmodulin mRNA, complete cds.","rat hippocampus; 250 mg/kg twice daily, AF178845 SEQ ID NO: 102",−1.6
same,"Φ: Mouse Naip3 gene, exon 1; neuronal apoptosis inhibitory protein 1 (Naip 1) and general transcription factor IIH polypeptide 2 (Gtf2h2) genes, complete cds.","rat hippocampus; 250 mg/kg twice daily, AF242432 SEQ ID NO: 80",2
same,"Φ: Mouse BAC 171m12 MESDC1 (Mesdc1) and MESDC2 (Mesdc2) genes, complete cds.","rat hippocampus; 250 mg/kg twice daily, AF311213 SEQ ID NO: 67",2.3
same,Φ: Rat gene encoding tyrosine aminotransferase.,"rat hippocampus; 250 mg/kg twice daily, AJ010709 SEQ ID NO: 93",1.8
same,Φ: Rat mRNA for Sulfotransferase K2.,"rat hippocampus; 250 mg/kg twice daily, AJ238392 SEQ ID NO: 77",2
same,Φ: unnamed protein product,"rat hippocampus; 250 mg/kg twice daily, BAB15010 SEQ ID NO: 90",1.8
same,Φ: hypothetical protein,"rat hippocampus; 250 mg/kg twice daily, CAB70864 SEQ ID NO: 117",−1.5
same,"Φ: Rat mRNA for histamine N-methyltransferase, complete cds.","rat hippocampus; 250 mg/kg twice daily, D10693 SEQ ID NO: 72",2.1
same,"Φ: Rat mRNA for delta-4-3-ketosteroid 5-beta-reductase, complete cds.","rat hippocampus; 250 mg/kg twice daily, D17309 SEQ ID NO: 68",2.2
same,"Φ: Rat mRNA for 14-3-3 protein theta-subtype, complete cds.","rat hippocampus; 250 mg/kg twice daily, D17614 SEQ ID NO: 109",−1.5
same,"Φ: Mouse mRNA for plexin 2, complete cds.","rat hippocampus; 250 mg/kg twice daily, D86949 SEQ ID NO: 95",1.8
same,"Φ: Rat clathrin heavy chain mRNA, complete cds.","rat hippocampus; 250 mg/kg twice daily, J03583 SEQ ID NO: 112",−1.5
same,Φ: rat myelin basic protein (mbp) gene mrna.,"rat hippocampus; 250 mg/kg twice daily, K00512 SEQ ID NO: 99",−1.6
same,Φ: Rat long terminal repeat DNA sequence.,"rat hippocampus; 250 mg/kg twice daily, L19707 SEQ ID NO: 73",2.1
same,"Φ: Rat stress activated protein kinase alpha I mRNA, complete cds.","rat hippocampus; 250 mg/kg twice daily, L27111 SEQ ID NO: 105",−1.5
same,"Φ: Murine phosphoprotein phosphatase mRNA, complete cds.","rat hippocampus; 250 mg/kg twice daily, M8 1475 SEQ ID NO: 114",−1.5
same,"Φ: Mouse myelin proteolipid protein mRNA, complete cds.","rat hippocampus; 250 mg/kg twice daily, M15442 SEQ ID NO: 103",−1.6
same,"Φ: Rat nuclear-encoded mitochondrial ATP synthase beta-subunit mRNA, 5′ end.","rat hippocampus; 250 mg/kg twice daily, M25301 SEQ ID NO: 107",−1.5
same,"Φ: Rat calcincurin A mRNA, complete cds.","rat hippocampus; 250 mg/kg twice daily, M29275 SEQ ID NO: 98",−1.7
same,"Φ: Rat senescence marker protein 2B gene, exons 1 and 2.","rat hippocampus; 250 mg/kg twice daily, M29302 SEQ ID NO: 81",1.9
same,"Φ: Rat thymosin beta-4 mRNA, complete cds.","rat hippocampus; 250 mg/kg twice daily, M34043 SEQ ID NO: 104",−1.5
same,"Φ: Rat cytochrome P450 IV A1 (CYP4A1) gene, complete cds.","rat hippocampus; 250 mg/kg twice daily, M57718 SEQ ID NO: 64",2.4
same,"Φ: Rat (LxRN3) LINE 1 repeat element, ORF II.","rat hippocampus; 250 mg/kg twice daily, M60824 SEQ ID NO: 66",2.3
same,"Φ: Rat (clone pRHx1) hemopexin mRNA, complete cds.","rat hippocampus; 250 mg/kg twice daily, M62642 SEQ ID NO: 84",1.9
same,"Φ: Rat 3-alpha-hydroxysteroid dehydrogenase (3-alpha-HSD) mRNA, complete cds.","rat hippocampus; 250 mg/kg twice daily, M64393 SEQ ID NO: 69",2.2
same,Φ: Rat kallikrein-binding protein (RKBP) gene.,"rat hippocampus; 250 mg/kg twice daily, M67496 SEQ ID NO: 74",2.1
same,"Φ: {clone 6B1, intracisternal A-particle derived LTR fragment} [rats, Genomic, 208 nt].","rat hippocampus; 250 mg/kg twice daily, S51653 SEQ ID NO: 76",2.1
same,"Φ: {clone E512, estrogen induced gene} [rats, Sprague-Dawley, hypothalamus, mRNA Partial, 259 nt].","rat hippocampus; 250 mg/kg twice daily, S74327 SEQ ID NO: 118",−1.5
same,"Φ: Rat Sprague-Dawley UDP-glucuronosyltransferase (UGT2B12) mRNA, complete cds.","rat hippocampus; 250 mg/kg twice daily, U06273 SEQ ID NO: 59",2.7
same,Φ: Rat LEW/N clone D0N544 satellite DNA sequence.,"rat hippocampus; 250 mg/kg twice daily, U06685 SEQ ID NO: 82",1.9
same,Φ: Rat Eker rat-associated intracisternal-A-particle element.,"rat hippocampus; 250 mg/kg twice daily, U23776 SEQ ID NO: 83",1.9
same,Φ: Rat Eker rat-associated intracisternal-A-particle element.,"rat hippocampus; 250 mg/kg twice daily, U23776 SEQ ID NO: 94",1.8
same,"Φ: Rat protein kinase C-binding protein NELL2 mRNA, complete cds.","rat hippocampus; 250 mg/kg twice daily, U48245 SEQ ID NO: 106",−1.5
same,"Φ: Mouse hippocampal amyloid precursor protein mRNA, complete cds.","rat hippocampus; 250 mg/kg twice daily, U84012 SEQ ID NO: 116",−1.5
same,"Φ: Rat mRNA for amyloidogenic glycoprotein (rAG), cognate of Human A4 amyloid precursor protein.","rat hippocampus; 250 mg/kg twice daily, X07648 SEQ ID NO: 101",−1.6
same,"Φ: Rat CaMII gene, exon 1 (and joined cds).","rat hippocampus; 250 mg/kg twice daily, X13833 SEQ ID NO: 113",−1.5
same,Φ: Rat mRNA for Mx3 protein.,"rat hippocampus; 250 mg/kg twice daily, X52713 SEQ ID NO: 78",2
same,Φ: Mouse rac1 gene.,"rat hippocampus; 250 mg/kg twice daily, X57277 SEQ ID NO: 115",−1.5
same,Φ: Rat mRNA for cdc2 promoter region.,"rat hippocampus; 250 mg/kg twice daily, X60767 SEQ ID NO: 92",1.8
same,Φ: Rat L1 retroposon/pseudogene; 3′ flank.,"rat hippocampus; 250 mg/kg twice daily, X61298 SEQ ID NO: 60",2.6
same,Φ: Rat mRNA for ubiquitin and ribosomal protein S27a.,"rat hippocampus; 250 mg/kg twice daily, X81839 SEQ ID NO: 108",−1.5
same,Φ: Rat MAL protein gene and mRNA.,"rat hippocampus; 250 mg/kg twice daily, X82557 SEQ ID NO: 110",−1.5
same,Φ: Rat mRNA for Myelin-associated/Oligodendrocytic Basic Protein-81.,"rat hippocampus; 250 mg/kg twice daily, X87900 SEQ ID NO: 100",−1.6
same,Φ: Rat mRNA for Tsx gene.,"rat hippocampus; 250 mg/kg twice daily, X99797 SEQ ID NO: 91",1.8
same,"Φ: Rat L1 retrotransposon mlvi2-rn14, 5′UTR and putative RNA binding protein 1 gene, partial cds.","rat hippocampus; 250 mg/kg valproate twice daily, vs vehicle, U87602 SEQ ID NO: 56",3.6
